Several values for one entry are separate records, joined by “and”; a condition that tells them apart may be missing. Equal values may be shown once.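 Protocol summary: plate cells (96-well), add compound at 5 concentrations, incubate 48 h, interpolate endpoints linearly. Here, GI50 denotes the concentration required for 50% inhibition of growth. At the TGI there is no net growth.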
How the values were obtained:
Assay in all cases: inhibition of tumour cell growth, NCI panel, 48 h
IGROV1 ovarian = system: IGROV1 ovarian
OVCAR-4 ovarian = system: OVCAR-4 ovarian
M14 melanoma = system: M14 melanoma
LOX IMVI melanoma = system: LOX IMVI melanoma
OVCAR-3 ovarian = system: OVCAR-3 ovarian
SNB-75 CNS = system: SNB-75 CNS
SF-539 CNS = system: SF-539 CNS
RXF 393 renal = system: RXF 393 renal
PC-3 prostate = system: PC-3 prostate
TK-10 renal = system: TK-10 renal

| Structure (SMILES) | GI50 (IGROV1 ovarian) | TGI (IGROV1 ovarian) | GI50 (OVCAR-4 ovarian) | TGI (OVCAR-4 ovarian) | GI50 (M14 melanoma) | TGI (M14 melanoma) | GI50 (LOX IMVI melanoma) | TGI (LOX IMVI melanoma) [µM] | GI50 (OVCAR-3 ovarian) | TGI (OVCAR-3 ovarian) | GI50 (SNB-75 CNS) | TGI (SNB-75 CNS) | GI50 (SF-539 CNS) | TGI (SF-539 CNS) | GI50 (RXF 393 renal) | TGI (RXF 393 renal) | GI50 (PC-3 prostate) | TGI (PC-3 prostate) | GI50 (TK-10 renal) | TGI (TK-10 renal) |
| --- | --- | --- | --- | --- | --- | --- | --- | --- | --- | --- | --- | --- | --- | --- | --- | --- | --- | --- | --- | --- |
| O=C(COc1ccc(Cl)cc1Cl)NNc1ccc([N+](=O)[O-])cc1 | 36 µM | > 100 µM | > 100 µM | > 100 µM | > 100 µM | > 100 µM | > 100 µM | > 100 | > 100 µM | > 100 µM | 15.3 µM | 33.7 µM | 99.8 µM | > 100 µM | 17 µM | 39.9 µM | > 100 µM | > 100 µM | 30.1 µM | 74.2 µM |
| S=C1NC(c2ccccc2)NC(c2ccccc2)S1 (stereo not drawn) |  | > 100 µM |  | > 100 µM |  | > 100 µM |  | > 100 |  | > 100 µM |  | > 100 µM |  | > 100 µM |  | > 100 µM |  | > 100 µM |  | > 100 µM |
| CC(=O)Nc1ccc2c(c1)[nH]c(=O)c1cc(NC(C)=O)ccc12 | > 100 µM | > 100 µM | > 100 µM | > 100 µM | > 100 µM | > 100 µM | > 100 µM | > 100 | > 100 µM | > 100 µM | 41.2 µM | > 100 µM | > 100 µM | > 100 µM | > 100 µM | > 100 µM | > 100 µM | > 100 µM | > 100 µM | > 100 µM |
| C[C@H]1O[C@@H](O[C@H]2[C@@H](O)C[C@H](O[C@H]3[C@@H](O)C[C@H](O[C@H]4CC[C@]5(C)C6CC[C@]7(C)[C@@H](C8=CC(=O)OC8)CC[C@]7(O)C6CC[C@@H]5C4)O[C@@H]3C)O[C@@H]2C)C[C@H](O)[C@@H]1O (stereo partly drawn) | 0.0261 µM | 2.22 µM |  | 0.0732 µM | 0.0328 µM | 0.0986 µM | 0.0156 µM | 0.0549 |  | 0.043 µM | 0.0182 µM | 0.102 µM | 0.0141 µM | 0.0373 µM | 0.0142 µM | 0.0439 µM | 0.0194 µM | 0.106 µM | 0.0165 µM | 0.0504 µM |
| C=C1CC2(CC(c3ccccc3C)OC(c3ccccc3C)C2)OC1=O (stereo not drawn) |  | 3.25 µM |  | 5.49 µM |  | 3.02 µM |  | 3.05 |  | 3.58 µM |  | 11.6 µM |  | 3.1 µM |  | 3.88 µM |  | 5.78 µM |  | 4.14 µM |
| C/C=C1/CN2CCC34c5ccccc5N5C(=O)C(C6CC78c9ccccc9N9C(=O)C=CC(C%10CC7N6C/C%10=C/C)C98)=CC(C1CC23)C54 (stereo not drawn) |  | 18.3 µM |  | 32.9 µM and 22.4 µM | 3.81 µM | 11.9 µM and 13.8 µM |  | 26 | 10.7 µM | 16.5 µM and 23.5 µM |  | 14.7 µM | 12 µM | 3.32 µM and 26.4 µM |  | 8.57 µM | 2.45 µM | 9.38 µM | 22 µM | 14.4 µM and 40.7 µM |
| COc1ccc(COc2ccc(Cc3cnc(N)nc3N)cc2OC)cc1 | > 25 µM | > 25 µM | 11 µM | > 25 µM | > 25 µM | > 25 µM | > 25 µM | > 25 | > 19.4 µM | > 25 µM | 8.09 µM | > 25 µM | > 25 µM | > 25 µM | 8.21 µM | > 25 µM | > 22.4 µM | > 25 µM | > 25 µM | > 25 µM |
| O=C(Nc1ccc([N+](=O)[O-])cc1Cl)c1cc(Cl)ccc1O | 0.229 µM and 0.294 µM | 18.7 µM and 8.49 µM | 0.156 µM and 0.259 µM | 13.4 µM and > 100 µM | 0.16 µM and 0.318 µM | 0.645 µM and 1.75 µM | 0.162 µM and 0.244 µM |  | 0.141 µM and 0.283 µM | 2.59 µM and 21.5 µM | 0.155 µM and 0.211 µM | 2.49 µM and 0.864 µM | 0.188 µM and 0.261 µM | 4.3 µM and 12 µM | 0.135 µM and 0.268 µM | 0.434 µM and 2.71 µM | 0.203 µM and 0.295 µM | 5.42 µM and > 38.7 µM | 0.165 µM and 0.307 µM | 1.67 µM and 0.984 µM |
| Cc1ccc(O)c(C(=O)/C=C/c2ccccc2)c1 |  | > 100 µM |  | > 100 µM |  | > 100 µM |  | > 100 |  | > 100 µM |  | > 100 µM |  | > 100 µM |  | > 100 µM |  | > 100 µM |  | > 100 µM |
| Cc1cc(C(=O)NOCCO)c(Nc2ccc(I)cc2F)n(C)c1=O | 0.00909 µM and 0.0178 µM | > 100 µM |  | > 100 µM | 0.00159 µM and < 0.01 µM | 2.89 µM |  | > 100 | > 100 µM | > 100 µM | > 10 µM and 17.1 µM | > 100 µM | > 38.5 µM | > 100 µM | 0.0915 µM and 0.199 µM | > 10 µM and 92.3 µM | > 100 µM | > 100 µM |  | > 100 µM |
| Cc1ccccc1N=C(c1ccccc1)C1C(=O)c2ccccc2C1=O | 10.7 µM | 39.4 µM | 20.4 µM | > 100 µM | 2.67 µM | 13.2 µM | 21.7 µM | 71.6 | 1.32 µM | 5.63 µM | 23.4 µM | > 100 µM | 12.1 µM | > 100 µM | 7.37 µM | > 100 µM | 18.9 µM | 62 µM | 8.43 µM | 38.5 µM |
| CC(C)Cc1cc(-c2cccn2C)c(C#N)c(=O)[nH]1 | > 100 µM | > 100 µM | 69.4 µM | > 100 µM |  |  | > 100 µM | > 100 | > 100 µM | > 100 µM | 40.1 µM | > 100 µM | > 100 µM | > 100 µM | > 100 µM | > 100 µM | > 100 µM | > 100 µM | > 100 µM | > 100 µM |
| Cc1c(-c2c(F)cc(C(N)=O)c3[nH]c4c(c23)CC[C@H](C(C)(C)O)C4)cccc1-n1c(=O)c2cccc(F)c2n(C)c1=O | 3.19 µM | > 100 µM | 6.31 µM | > 100 µM | 3.69 µM | 66.1 µM | 3.13 µM | > 100 | 3.95 µM | > 100 µM |  |  | 4.78 µM | 33.4 µM | 1.61 µM | 5.31 µM | 2.67 µM | > 100 µM | 2.04 µM | 8.03 µM |
| O=C(Nc1cccc(Cl)c1)Nc1cc(C(F)(F)F)ccc1Cl |  |  | 3.8 µM | 16.6 µM | 2.97 µM | 9.68 µM | 2.75 µM | 6.96 | 2.61 µM | 7.19 µM | 2.29 µM | 6.48 µM | 3.18 µM | 11.4 µM | 1.12 µM | 3.95 µM | 3.86 µM | 32.8 µM | 4.29 µM | 39.5 µM |
